Measured values as given in BindingDB's records for doi:10.1016/j.chembiol.2016.11.013 (Peking University, 2017).

Experiments:
[1] = target: T1, D-3-phosphoglycerate dehydrogenase (Homo sapiens, UniProt O43175); assay: PHGDH Enzyme Assay; conditions: pH 7.1
T1 sequence (O43175 whole entry): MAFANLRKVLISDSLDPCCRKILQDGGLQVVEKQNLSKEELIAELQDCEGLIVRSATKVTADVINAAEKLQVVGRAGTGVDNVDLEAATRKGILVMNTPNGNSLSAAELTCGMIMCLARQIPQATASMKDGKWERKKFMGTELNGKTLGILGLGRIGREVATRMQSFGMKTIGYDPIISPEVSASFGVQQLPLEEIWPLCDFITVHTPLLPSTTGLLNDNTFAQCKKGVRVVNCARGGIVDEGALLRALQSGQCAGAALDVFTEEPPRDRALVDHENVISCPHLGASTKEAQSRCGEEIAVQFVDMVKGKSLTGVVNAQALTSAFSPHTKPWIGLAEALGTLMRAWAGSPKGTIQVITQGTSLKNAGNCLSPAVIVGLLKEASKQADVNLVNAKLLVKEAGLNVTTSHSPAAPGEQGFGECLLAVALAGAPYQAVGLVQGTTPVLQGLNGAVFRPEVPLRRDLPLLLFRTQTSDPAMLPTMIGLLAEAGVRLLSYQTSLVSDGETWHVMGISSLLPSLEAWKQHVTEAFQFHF
Procedure: (§1) To evaluate the effects of compounds on PHGDH activity, compounds were first pre-incubated with enzyme samples in the assay buffer (25 mM HEPES, pH 7.1, 400 mM KCl, 5 μM phosphopyridoxa (PLP), 0.5 mM α-ketoglutarate, 150 μM NADH, 1 mM DTT) for 10 min at 25℃, then the reaction was started by adding L-phospho-O-serine (Pser). […] Fluorescence signals were recorded for 3 min with a kinetics mode program using on a plate reader (Synergy, Biotek).

[2] = target: T1, D-3-phosphoglycerate dehydrogenase; assay: PHGDH SPR Assay; conditions: pH 7.4
Procedure: The binding affinities of compounds towards PHGDH were assayed using the SPR-based Biacore T200 instrument (GE Healthcare). PHGDH was immobilized on a CM5 sensor chip by using standard amine-coupling at 25℃ with running buffer PBS-P (20 mM phosphate buffer, […], 0.05% surfactant P-20, pH 7.4), respectively, as described previously. A reference flow cell was activated and blocked in the absence of PHGDH. […] Regeneration was achieved by extended washing with the running buffer after each sample injection.

[3] = target: T2, D-3-phosphoglycerate dehydrogenase [3-314] (Homo sapiens, UniProt O43175); assay: PHGDH Enzyme Assay; conditions: pH 7.1
T2 construct: 3-314
T2 sequence (O43175 whole entry): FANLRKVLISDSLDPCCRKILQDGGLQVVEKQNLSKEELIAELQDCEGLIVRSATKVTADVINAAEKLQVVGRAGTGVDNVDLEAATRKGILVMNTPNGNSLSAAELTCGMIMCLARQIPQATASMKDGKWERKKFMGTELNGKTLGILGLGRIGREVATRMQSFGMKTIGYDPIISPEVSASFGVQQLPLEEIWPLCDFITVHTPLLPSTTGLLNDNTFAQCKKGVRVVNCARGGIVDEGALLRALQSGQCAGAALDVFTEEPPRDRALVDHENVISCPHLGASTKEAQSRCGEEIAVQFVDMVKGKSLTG
Procedure: as §1

Row | Compound | IC50 [1] [µM] | Kd [2] [µM] | IC50 [3] [µM] | Kd ([2]; read-out: Kd) [µM]
1 | O=C1N[C@H]2[C@H](CS[C@H]2CCCCC(=O)OCc2cc([N+](=O)[O-])cc(/C=N/NC(=O)c3ccc(O)cc3O)c2O)N1 [PKUMDL-WQ-2101-Biotin] | 49.5 |  |  | 
2 | O=C(N/N=C/c1cc([N+](=O)[O-])ccc1O)c1ccc(O)cc1O [PKUMDL-WQ-2101] | 44.9 | 0.56 | 30.1 | 
3 | CCNC(=S)N/N=C\c1ccc(-c2ccc(C(=O)O)c(Cl)c2)o1 [PKUMDL-WQ-2201] |  |  | 35 | 66.9
4 | Cc1c(/N=N/c2cccc(C(=O)O)c2)c(O)[nH]c(=O)c1C#N [PKUMDL-WQ-2202] | 42 |  |  | 29
5 | O=C(O)CSC1=C(SCC(=O)O)C(=O)C(SCC(=O)O)=C(SCC(=O)O)C1=O [PKUMDL-WQ-2203] | 28.1 |  |  | 7.22
